Measured values as given in patent US20240139220A1, “TREATMENT OF HPV INFECTION” (priority 2022, published 2024).

What was measured:
Type in all cases: physicochemical
[1] = Bulk stability, accelerated storage for one week (HPLC, XRPD); details: for Bulk (XRPD) / Color / Purity, Bulk (HPLC): 1 week
Description: Bulk stability: Accelerated stability experiments were conducted at 25° C./92% RH and 40° C./75% RH in an open container, 60° C. in a tight container for one week.
Samples were characterized by XRPD and HPLC and inspected for color change.
Accelerated stability experiments were conducted at 25° C./92% RH in an open container, at 40° C./75% RH in an open container, and at 60° C. in a tight container for one week.

[2] = Solubility in buffers, water and simulated vaginal fluid at 37° C.
Description: About 4 mg of Compound I Pattern 1 was added into 2 mL of buffer solution.
(§1) Solubility was tested in five media, pH 3.0 citrate buffer, pH 4.5 acetate buffer, pH 6.8 phosphate buffer, water, simulated vaginal fluid (pH 4.2) at 37° C. for 0.5 h and 2 h.
The salt amount used is equivalent to 10 mg anhydrous free base. […] The obtained clear solutions were analyzed by pH meter for pH, and solubility was determined by observation.
as §1

[3] = Hygroscicity by Dynamic Vapor Sorption (DVS) at 25° C.; details: for XRPD after DVS test: 25° C.
Description: Hygroscopicity was investigated by DVS at 25° C., using the following method: […]

[4] = Polymorph screening by equilibration in solvents at 25° C. (XRPD)
[5] = BS1: solid state, 25° C./92% RH, open container
[6] = BS2: solid state, 40° C./75% RH, open container
[7] = BS3: solid state, 60° C., tight container
[8] = ES1: pH 3.0, 100 mM citrate buffer
[9] = ES2: pH 4.5, 50 mM acetate buffer
[10] = ES3: pH 6.8, 50 mM phosphate buffer
[11] = ES5: Simulated vaginal fluid (pH adjusted by 0.1N NaOH)

## CCOC(=O)C(C)NP(=O)(COCCn1cnc2c(OC)nc(N)nc21)OCc1ccccc1.O=C(O)C=CC(=O)O (stereo not drawn) [Compound II Pattern 1]
[1]; 25° C./92% RH open, 40° C./75% RH open, 60° C. tight container, one week
  Stability after exposure to the three conditions: good physical and chemical stability
[1]; [5]
  Bulk (XRPD): No form change
  Color: No change
  Purity, Bulk (HPLC): 99.5%
[1]; [6]
  Bulk (XRPD): No form change
  Color: No change
  Purity, Bulk (HPLC): 99.4%
[1]; [7]
  Bulk (XRPD): No form change
  Color: No change
  Purity, Bulk (HPLC): 99.7%
[1]; before storage
  Initial HPLC purity: 99.7%
[2]; [8]
  Solubility 0.5 hours: >2 mg/mL
  Solubility 2 hours: > 2 mg/mL
  pH of solution, 2 hours: 2.85
[2]; [9]
  Solubility 0.5 hours: >2 mg/mL
  Solubility 2 hours: > 2 mg/mL
  pH of solution, 2 hours: 4.2
[2]; [10]
  Solubility 0.5 hours: >2 mg/mL
  Solubility 2 hours: > 2 mg/mL
  pH of solution, 2 hours: 6.47
[2]; ES4: Water
  Solubility 0.5 hours: >2 mg/mL
  Solubility 2 hours: > 2 mg/mL
  pH of solution, 2 hours: 2.87
[2]; [11]
  Solubility 0.5 hours: >2 mg/mL
  Solubility 2 hours: > 2 mg/mL
  pH of solution, 2 hours: 5.79
[3]; 0% RH, DVS 25° C.
  Desorp. (%) Cycle 1: 0.03%
  Desorp. (%) Cycle 2: 0.03%
  Sorp. (%) Cycle 1: 0.03%
  Sorp. (%) Cycle 2: 0.03%
[3]; 10% RH, DVS 25° C.
  Desorp. (%) Cycle 1: 0.05%
  Desorp. (%) Cycle 2: 0.05%
  Sorp. (%) Cycle 1: 0.04%
  Sorp. (%) Cycle 2: 0.04%
[3]; 20% RH, DVS 25° C.
  Desorp. (%) Cycle 1: 0.08%
  Desorp. (%) Cycle 2: 0.07%
  Sorp. (%) Cycle 1: 0.06%
  Sorp. (%) Cycle 2: 0.06%
[3]; 30% RH, DVS 25° C.
  Desorp. (%) Cycle 1: 0.10%
  Desorp. (%) Cycle 2: 0.08%
  Sorp. (%) Cycle 1: 0.08%
  Sorp. (%) Cycle 2: 0.07%
[3]; 40% RH, DVS 25° C.
  Desorp. (%) Cycle 1: 0.17%
  Desorp. (%) Cycle 2: 0.10%
  Sorp. (%) Cycle 1: 0.10%
  Sorp. (%) Cycle 2: 0.09%
[3]; 40-0-95-0-40% RH
  XRPD after DVS test: No form change
[3]; 50% RH, DVS 25° C.
  Desorp. (%) Cycle 2: 0.12%
  Sorp. (%) Cycle 1: 0.12%
[3]; 60% RH, DVS 25° C.
  Desorp. (%) Cycle 2: 0.14%
  Sorp. (%) Cycle 1: 0.13%
[3]; 70% RH, DVS 25° C.
  Desorp. (%) Cycle 2: 0.18%
  Sorp. (%) Cycle 1: 0.16%
[3]; 80% RH, DVS 25° C.
  Desorp. (%) Cycle 2: 0.21%
  Sorp. (%) Cycle 1: 0.19%
[3]; 90% RH, DVS 25° C.
  Desorp. (%) Cycle 2: 0.24%
  Sorp. (%) Cycle 1: 0.23%
[3]; 95% RH, DVS 25° C.
  Desorp. (%) Cycle 2: 0.24%
  Sorp. (%) Cycle 1: 0.24%
[3]; DVS 25° C.
  Hygroscopicity: slightly hygroscopic
[3]; cycle 40-0-95-0-40% RH
  XRPD after DVS test: No form change
[3]; up to 95% RH, DVS 25° C.
  Water uptake: about 0.2%
[4]; PS1: IPA
  Crystal modification after 1 week equilibration (XRPD): Compound II Pattern 1
[4]; PS2: Heptanes
  Crystal modification after 1 week equilibration (XRPD): Compound II Pattern 1
[4]; PS3: Water
  Crystal modification after 1 week equilibration (XRPD): Compound II Pattern 1
[4]; PS4: ACN
  Crystal modification after 1 week equilibration (XRPD): Compound II Pattern 2
[4]; PS5: MEK
  Crystal modification after 1 week equilibration (XRPD): Compound II Pattern 3
[4]; PS6: Acetone
  Crystal modification after 1 week equilibration (XRPD): Compound II Pattern 1
[4]; PS7: IPA/heptanes (3/10, v/v)
  Crystal modification after 1 week equilibration (XRPD): Compound II Pattern 1
[4]; PS8: water/ACN (2.9/97.1, v/v)
  Crystal modification after 1 week equilibration (XRPD): Compound II Pattern 2
[4]; PS9: IPA/MTBE (1/3, v/v)
  Crystal modification after 1 week equilibration (XRPD): Compound II Pattern 1
[4]; PS10: EA/toluene (1/3, v/v)
  Crystal modification after 1 week equilibration (XRPD): Compound II Pattern 1
